Assay results from patent US20100056524A1, “Compound” (priority 2008, published 2010).
Structures can show the parent of a compound that is named as a salt. Where two headings read alike, the source gives them in different places.

How the values were obtained:
NEK2a = molecular target: T1, NEK2a (Homo sapiens, UniProt P51955); assay: NEK2a protein kinase assay; type: biochemical; conditions: for remaining activity at 10 µM: 10 μM compound; for residual kinase activity NEK2a: 1 μm compound; for remaining activity at 1 µM: 1 μM compound
T1 construct: All protein kinases were of human origin and encoded full length proteins, unless indicated otherwise; made in house
T1 sequence (P51955 1-445): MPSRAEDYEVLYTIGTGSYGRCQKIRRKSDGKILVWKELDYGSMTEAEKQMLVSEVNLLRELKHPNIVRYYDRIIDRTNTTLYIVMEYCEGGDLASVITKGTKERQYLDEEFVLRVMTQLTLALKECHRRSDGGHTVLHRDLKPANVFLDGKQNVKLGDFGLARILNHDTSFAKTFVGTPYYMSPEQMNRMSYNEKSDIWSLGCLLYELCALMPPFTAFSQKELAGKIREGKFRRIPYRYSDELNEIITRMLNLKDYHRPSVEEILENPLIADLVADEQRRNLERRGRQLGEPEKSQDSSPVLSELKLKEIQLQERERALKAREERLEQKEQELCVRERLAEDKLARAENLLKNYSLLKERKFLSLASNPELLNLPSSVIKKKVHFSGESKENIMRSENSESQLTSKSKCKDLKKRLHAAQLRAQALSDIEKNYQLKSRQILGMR
Description: (§1) All protein kinases were of human origin and encoded full length proteins, unless indicated otherwise. They were either expressed as glutathione S-transferase (GST) fusion proteins in Escherichia Coli or as hexahistidine (His6)-tagged proteins in insect Sf21 cells. GST fusion proteins were purified by affinity chromatography on glutathione-Sepharose, and His6-tagged proteins on nickel/nitriloacetate-agarose. The procedures for expressing some of the protein kinases used herein have been detailed previously.^8,9 The following sections outline the DNA vectors synthesised and the procedures used to express and purifying protein kinases that have not been reported previously.
(§2) All assays (25.5 μl) were carried out at room temperature (21° C.) and were linear with respect to time and enzyme concentration under the conditions used. Assays were performed for 30 min using Multidrop Micro reagent dispensers (Thermo Electron Corporation, Waltham, Mass. 02454, USA) in a 96-well format. The concentration of magnesium acetate in the assays was 10 mM and the [γ-33P] ATP (800 cpm/pmol) was used at 5, 20 or 50 μM as indicated, in order to be at or below the Km for ATP for each enzyme. Protein kinases assayed at 5 μM ATP were: —ERK1, ERK8, PKBα, MARK3, Aurora C. Protein kinases assayed at 20 μM ATP were: —JNK1, PDK1, CHK1, CHK2, CDK2 and Aurora B. Protein kinases assayed at 50 μM ATP were: —MNK2, IKKepsilon and TBK1.
(§3) The assays were initiated with MgATP, stopped by addition of 5 μl of 0.5 M orthophosphoric acid and spotted on to P81 filterplates using a unifilter harvester (PerkinElmer, Boston, Mass. 02118, USA). The IC50 values of inhibitors were determined after carrying out assays at 10 different concentrations of each compound.
(§4) Unless stated otherwise, enzymes were diluted in 50 mM Tris/HCl pH 7.5, 0.1 mM EGTA, 1 mg/ml BSA, 0.1% (v/v) 2-mercaptoethanol and assayed in 50 mM Tris/HCl pH 7.5, 0.1 mM EGTA, 0.1% (v/v) 2-mercaptoethanol.

CAMKKb = molecular target: T2, CAMKKb (Homo sapiens, UniProt Q96RR4); assay: CAMKKb protein kinase assay; type: biochemical; conditions: for remaining activity at 10 µM: 10 μM compound; for residual kinase activity CAMKKb: 1 μm compound; for remaining activity at 1 µM: 1 μM compound
T2 construct: All protein kinases were of human origin and encoded full length proteins, unless indicated otherwise; made in house
T2 sequence (Q96RR4 whole entry): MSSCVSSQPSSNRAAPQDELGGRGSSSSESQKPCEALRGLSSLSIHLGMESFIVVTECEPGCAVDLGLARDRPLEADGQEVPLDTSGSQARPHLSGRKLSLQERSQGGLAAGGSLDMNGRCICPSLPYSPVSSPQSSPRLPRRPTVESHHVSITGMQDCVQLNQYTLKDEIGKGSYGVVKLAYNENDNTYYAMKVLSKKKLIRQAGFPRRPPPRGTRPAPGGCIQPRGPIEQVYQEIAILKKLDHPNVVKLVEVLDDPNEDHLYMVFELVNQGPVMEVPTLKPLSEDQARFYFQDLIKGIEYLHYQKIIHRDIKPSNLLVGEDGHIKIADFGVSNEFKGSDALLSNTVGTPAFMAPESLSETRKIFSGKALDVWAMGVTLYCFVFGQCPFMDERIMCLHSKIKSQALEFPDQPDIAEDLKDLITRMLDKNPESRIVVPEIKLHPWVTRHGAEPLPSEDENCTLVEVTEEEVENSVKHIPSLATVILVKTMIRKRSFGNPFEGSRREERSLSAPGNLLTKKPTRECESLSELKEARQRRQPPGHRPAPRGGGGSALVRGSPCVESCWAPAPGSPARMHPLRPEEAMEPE
Description: as §1, §2, §3, §4

PLK1 (Okadaic Acid) = molecular target: T3, PLK1 (Okadaic Acid) (Homo sapiens, UniProt P53350); assay: PLK1 (Okadaic Acid) protein kinase assay; type: biochemical; conditions: for remaining activity at 10 µM: 10 μM compound; for residual kinase activity PLK1 (Okadaic Acid): 1 μm compound; for remaining activity at 1 µM: 1 μM compound
T3 construct: All protein kinases were of human origin and encoded full length proteins, unless indicated otherwise; made in house; host or cells: probably Sf21 insect cells treated with okadaic acid (inferred from the row name; the text says this only of Aurora B and C)
T3 sequence (P53350 whole entry): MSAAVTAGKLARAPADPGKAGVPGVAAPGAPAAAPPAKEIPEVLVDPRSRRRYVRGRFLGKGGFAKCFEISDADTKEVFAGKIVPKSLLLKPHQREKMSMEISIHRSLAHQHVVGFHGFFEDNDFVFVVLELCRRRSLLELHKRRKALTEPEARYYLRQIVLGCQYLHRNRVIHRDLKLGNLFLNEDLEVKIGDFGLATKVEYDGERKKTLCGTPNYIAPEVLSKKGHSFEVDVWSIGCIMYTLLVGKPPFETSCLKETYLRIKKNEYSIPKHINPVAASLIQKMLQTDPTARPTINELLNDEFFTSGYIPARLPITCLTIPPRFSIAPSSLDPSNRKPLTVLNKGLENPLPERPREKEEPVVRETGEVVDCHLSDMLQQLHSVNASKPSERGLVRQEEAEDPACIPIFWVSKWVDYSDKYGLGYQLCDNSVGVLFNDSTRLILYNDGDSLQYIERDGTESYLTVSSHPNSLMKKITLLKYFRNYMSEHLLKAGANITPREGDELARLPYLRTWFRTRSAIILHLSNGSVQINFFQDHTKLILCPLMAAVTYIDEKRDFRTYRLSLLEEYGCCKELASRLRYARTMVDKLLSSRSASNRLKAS
Description: as §1, §2, §3, §4

EPH-B3 = molecular target: T4, EPH-B3 (Homo sapiens, UniProt P54753); assay: EPH-B3 protein kinase assay; type: biochemical; conditions: for remaining activity at 10 µM: 10 μM compound; for residual kinase activity EPH-B3: 1 μm compound; for remaining activity at 1 µM: 1 μM compound
T4 construct: All protein kinases were of human origin and encoded full length proteins, unless indicated otherwise; made in house
T4 sequence (P54753 34-998): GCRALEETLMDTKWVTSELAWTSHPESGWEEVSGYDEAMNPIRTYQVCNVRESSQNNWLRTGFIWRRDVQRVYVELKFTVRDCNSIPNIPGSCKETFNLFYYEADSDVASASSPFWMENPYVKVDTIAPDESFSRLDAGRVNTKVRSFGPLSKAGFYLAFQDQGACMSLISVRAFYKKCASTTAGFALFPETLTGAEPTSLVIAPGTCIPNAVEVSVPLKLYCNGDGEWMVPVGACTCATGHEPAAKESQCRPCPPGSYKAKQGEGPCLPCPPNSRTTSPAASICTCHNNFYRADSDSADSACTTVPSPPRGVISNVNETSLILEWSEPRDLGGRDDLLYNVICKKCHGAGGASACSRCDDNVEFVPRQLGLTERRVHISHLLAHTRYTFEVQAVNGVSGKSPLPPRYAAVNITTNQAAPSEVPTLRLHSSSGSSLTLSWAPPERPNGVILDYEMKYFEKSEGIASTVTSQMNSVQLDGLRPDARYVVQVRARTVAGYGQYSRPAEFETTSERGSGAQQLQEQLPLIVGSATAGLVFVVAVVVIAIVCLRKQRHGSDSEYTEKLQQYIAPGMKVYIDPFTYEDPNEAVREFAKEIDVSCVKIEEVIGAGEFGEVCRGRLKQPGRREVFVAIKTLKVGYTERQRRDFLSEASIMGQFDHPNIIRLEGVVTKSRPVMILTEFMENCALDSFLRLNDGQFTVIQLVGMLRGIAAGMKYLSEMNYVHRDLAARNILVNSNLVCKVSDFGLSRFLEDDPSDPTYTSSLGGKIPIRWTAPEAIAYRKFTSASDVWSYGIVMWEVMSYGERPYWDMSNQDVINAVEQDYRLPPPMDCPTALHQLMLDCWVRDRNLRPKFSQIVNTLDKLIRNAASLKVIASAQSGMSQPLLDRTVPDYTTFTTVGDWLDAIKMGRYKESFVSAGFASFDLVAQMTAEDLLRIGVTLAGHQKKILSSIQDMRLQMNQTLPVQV
Description: as §1, §2, §3, §4

p38a MAPK = molecular target: T5, p38a MAPK (Homo sapiens, UniProt Q16539); assay: p38a MAPK protein kinase assay; type: biochemical; conditions: for remaining activity at 10 µM: 10 μM compound; for residual kinase activity p38a MAPK: 1 μm compound; for remaining activity at 1 µM: 1 μM compound
T5 construct: All protein kinases were of human origin and encoded full length proteins, unless indicated otherwise; made in house
T5 sequence (Q16539 whole entry): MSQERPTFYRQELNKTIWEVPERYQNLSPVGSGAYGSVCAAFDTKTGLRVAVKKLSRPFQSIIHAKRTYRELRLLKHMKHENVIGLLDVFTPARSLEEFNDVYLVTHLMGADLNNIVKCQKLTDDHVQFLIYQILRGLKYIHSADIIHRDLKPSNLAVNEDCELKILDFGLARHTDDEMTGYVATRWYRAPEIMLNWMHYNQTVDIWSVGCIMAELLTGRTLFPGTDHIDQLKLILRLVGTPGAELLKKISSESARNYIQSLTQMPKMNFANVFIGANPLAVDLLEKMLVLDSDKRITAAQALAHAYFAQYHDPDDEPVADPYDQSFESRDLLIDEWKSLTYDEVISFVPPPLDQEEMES
Description: as §1, §2, §3, §4

NEK6 = molecular target: T6, NEK6 (Homo sapiens, UniProt Q9HC98); assay: NEK6 protein kinase assay; type: biochemical; conditions: for remaining activity at 10 µM: 10 μM compound; for residual kinase activity NEK6: 1 μm compound; for remaining activity at 1 µM: 1 μM compound
T6 construct: All protein kinases were of human origin and encoded full length proteins, unless indicated otherwise; made in house
T6 sequence (Q9HC98 whole entry): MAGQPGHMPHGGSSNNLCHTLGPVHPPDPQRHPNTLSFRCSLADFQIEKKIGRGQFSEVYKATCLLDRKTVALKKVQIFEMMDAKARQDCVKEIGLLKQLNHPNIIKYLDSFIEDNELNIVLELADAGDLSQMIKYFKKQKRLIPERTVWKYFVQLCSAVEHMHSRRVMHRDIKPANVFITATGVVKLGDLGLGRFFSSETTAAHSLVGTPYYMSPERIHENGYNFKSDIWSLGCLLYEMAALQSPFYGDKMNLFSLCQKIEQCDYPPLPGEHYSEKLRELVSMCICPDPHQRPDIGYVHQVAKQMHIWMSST
Description: as §1, §2, §3, §4

IR-HIS = IR-HIS protein kinase assay; type: biochemical, human; conditions: for residual kinase activity: IR-HIS
Description: as §1, §2, §3, §4

[1] = read-out: residual kinase activity NEK2a
[2] = read-out: residual kinase activity CAMKKb
[3] = read-out: residual kinase activity PLK1 (Okadaic Acid)
[4] = read-out: residual kinase activity EPH-B3
[5] = read-out: residual kinase activity p38a MAPK
[6] = read-out: residual kinase activity NEK6
[7] = NEK2a, read-out: residual kinase activity
[8] = CAMKKb, read-out: residual kinase activity
[9] = PLK1 (Okadaic Acid), read-out: residual kinase activity
[10] = EPH-B3, read-out: residual kinase activity
[11] = p38a MAPK, read-out: residual kinase activity
[12] = NEK6, read-out: residual kinase activity

Compound | remaining activity at 10 µM (NEK2a; [1]) [%] | residual kinase activity NEK2a (NEK2a) [%] | remaining activity at 10 µM (CAMKKb; [2]) [%] | residual kinase activity CAMKKb (CAMKKb) [%] | remaining activity at 10 µM (PLK1 (Okadaic Acid); [3]) [%] | residual kinase activity PLK1 (Okadaic Acid) (PLK1 (Okadaic Acid)) [%] | remaining activity at 1 µM (NEK2a; [7]) [%] | remaining activity at 10 µM (NEK2a; [7]) [%] | remaining activity at 1 µM (CAMKKb; [8]) [%] | remaining activity at 10 µM (CAMKKb; [8]) [%] | remaining activity at 1 µM (PLK1 (Okadaic Acid); [9]) [%] | remaining activity at 10 µM (PLK1 (Okadaic Acid); [9]) [%] | remaining activity at 1 µM (EPH-B3; [10]) [%] | remaining activity at 10 µM (EPH-B3; [10]) [%] | remaining activity at 1 µM (p38a MAPK; [11]) [%] | remaining activity at 10 µM (p38a MAPK; [11]) [%] | remaining activity at 1 µM (NEK6; [12]) [%] | remaining activity at 10 µM (NEK6; [12]) [%] | residual kinase activity (IR-HIS; 1 μM compound) [%] | residual kinase activity (IR-HIS; 10 μM compound) [%] | also measured
O=C(NCCCNc1nc(Nc2cccc(F)c2)ncc1Br)C1CCC1 [Compound A, cyclobutanecarboxylic acid {3-[5-bromo-2-(3-fluoro-phenylamino)-pyrimidin-4-ylamino]-propyl}-amide, reference compound] | 57 | 95 | 22 | 27 | 39 | 95 |  |  |  |  |  |  |  |  |  |  |  |  |  |  | remaining activity at 10 µM (EPH-B3; [4]): 69%; residual kinase activity EPH-B3 (EPH-B3): 92%; remaining activity at 10 µM (p38a MAPK; [5]): 78%; residual kinase activity p38a MAPK (p38a MAPK): 99%; remaining activity at 10 µM (NEK6; [6]): 93%; residual kinase activity NEK6 (NEK6): 88%; residual kinase activity IR-HIS (IR-HIS; 10 μM compound): 69%; residual kinase activity IR-HIS (IR-HIS; 1 μm compound): 91%
O=C(NCCCNc1nc(Nc2cccc(F)c2)ncc1C1CC1)C1CCC1 [Example 23, Cyclobutanecarboxylic acid {3-[5-cyclopropyl-2-(3-fluoro-phenylamino)-pyrimidin-4-ylamino]-propyl}-amide] | 65 | 91 | 8 | 43 | 46 | 66 | 91 | 65 | 43 | 8 | 66 | 46 | 120 | 95 | 72 | 86 | 88 | 83 | 105 | 86 | remaining activity at 10 µM (EPH-B3; [4]): 95%; residual kinase activity EPH-B3 (EPH-B3): 120%; remaining activity at 10 µM (p38a MAPK; [5]): 86%; residual kinase activity p38a MAPK (p38a MAPK): 72%; remaining activity at 10 µM (NEK6; [6]): 83%; residual kinase activity NEK6 (NEK6): 88%; residual kinase activity IR-HIS (IR-HIS; 10 μM compound): 86%; residual kinase activity IR-HIS (IR-HIS; 1 μm compound): 105%
O=C(NCCCNc1nc(Nc2cccc(N3CCCC3=O)c2)ncc1C1CC1)c1cccs1 [Example 47, Thiophene-2-carboxylic acid (3-{5-cyclopropyl-2-[3-(2-oxo-pyrrolidin-1-yl)-phenylamino]-pyrimidin-4-ylamino}-propyl)-amide. Hydrochloride salt] |  |  |  |  |  |  | 104 | 79 | 61 | 36 | 90 | 64 | 48 | 93 | 105 | 100 | 65 | 65 | 105 | 85 | 
O=C(NCCCNc1nc(Nc2cccnc2)ncc1C1CC1)c1cccs1 [Example 50, Thiophene-2-carboxylic acid {3-[5-cyclopropyl-2-(pyridin-3-ylamino)-pyrimidin-4-ylamino]-propyl}-amide] |  |  |  |  |  |  | 93 | 71 | 72 | 40 | 82 | 60 | 100 | 97 | 106 | 90 | 107 | 103 | 109 | 109 | 
